Experimental data: patent US12453716B2, “Small molecule antagonist to PACAP receptor and uses thereof” (University of Vermont and State Agricultural College, priority 2019, dated 2025)
Blank lines part the entries; values can stand above or below the compound they belong to.

What was measured:
[1] = biological target: T1, PAC1 receptor (Homo sapiens, UniProt P41586); test: PACAP-stimulated calcium signaling, Fura-2 assay in HEK PAC1-EGFP cell line; type: cell-based; conditions: for PAC1 receptor-mediated calcium flux: concentration not given
T1 construct: expressed in transfected cells
T1 sequence (P41586 21-468): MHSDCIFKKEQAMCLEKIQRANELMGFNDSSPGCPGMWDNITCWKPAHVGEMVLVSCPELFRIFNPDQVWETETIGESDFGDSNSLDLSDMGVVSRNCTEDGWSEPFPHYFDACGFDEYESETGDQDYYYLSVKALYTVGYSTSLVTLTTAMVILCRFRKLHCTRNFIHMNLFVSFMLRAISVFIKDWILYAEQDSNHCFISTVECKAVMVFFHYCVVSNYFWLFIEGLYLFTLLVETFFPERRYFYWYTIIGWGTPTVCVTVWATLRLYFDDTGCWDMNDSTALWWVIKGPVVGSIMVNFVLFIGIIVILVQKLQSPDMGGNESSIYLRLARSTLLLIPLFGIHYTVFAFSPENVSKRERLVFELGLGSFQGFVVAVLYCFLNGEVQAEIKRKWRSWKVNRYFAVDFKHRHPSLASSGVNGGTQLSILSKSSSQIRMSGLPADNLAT
Method: (§1) Compound I-1 blocks PAC1 receptor internalization and calcium signaling. […] Upon 25 nM PACAP application (15 min), the tagged receptor is internalized into intracellular endosomes for ERK signaling (PACAP, middle panel). However, pretreatment of the culture (15 min) with 10-25 μM I-1 blocked PACAP-stimulated receptor internalization (PACAP+I-1); the PAC1-EGFP receptors remained on the cell surface. In FIG. 2, using the same HEK PAC1-EGFP cell line, PACAP rapidly stimulated calcium signaling in Fura-2 assays. The response was blocked approximately 50% with 2.5 μM compound I-1, and was abolished with 25 μM I-1.
The PAC1-EGFP HEK cell lines were preloaded with Fura-2 for calcium imaging. PACAP alone produced robust calcium signals.

[2] = biological target: T1, PAC1 receptor; test: PACAP-stimulated ERK phosphorylation/activation in HEK PAC1-EGFP receptor cell line; type: cell-based; conditions: for PAC1 receptor endosomal/ligand-mediated ERK activation: concentration not given
Method: In FIG. 3, using the stably expressing HEK PAC1-EGFP receptor cell line, compound I-1 blocks 25 nM PACAP-stimulated ERK phosphorylation and activation (p42 and p44 ERK bands) in a dose-dependent manner. […] In similar assays, the other compounds (I-2 to I-26) can block PACAP-stimulated ERK signaling with an apparent IC50 of 25 μM.
In FIG. 5, the compound I-20 acts as a glucagon receptor (GCGR) antagonist by binding to an extra-helical allosteric site on the receptor. […] In FIG. 6, the addition of compound I-20 can increase the efficacy and potency of […] inhibiting PACAP-stimulated ERK activation.
In FIG. 7, all samples were pretreated with 25 μM acyl hydrazide before 25 nM PACAP application. Glucagon antagonist is I-20. Data normalized to total cellular ERK not shown.

[3] = biological target: T1, PAC1 receptor; test: PACAP-stimulated PAC1-EGFP receptor internalization in stable HEK cell line; type: cell-based
Method: as §1

[4] = tested on: male rats; test: Open field test after BNST infusion, PACAP-induced anxiety-related behavior; type: in vivo, rat; conditions: FIG. 8
Excerpt: Compound I-1 blocks PACAP-induced anxiety-related behavior. In FIG. 8, male rats were cannulated bilaterally into the BNST. […] PACAP infusions into the BNST produced stress/anxiety-like responses as reflected by decreased center field times (duration in seconds). […] In the right panel, the open field entry data was not affected by changes in animal locomotion. Asterisk, statistically different from other groups. Note: I-1+PACAP returned open field times to untreated control levels.

PAC1 receptor-mediated calcium flux [1]: completely blocking
PAC1 receptor endosomal/ligand-mediated ERK activation [2]: without apparent effects
SMILES: Cc1cc(C)c(C)c(Cn2ccc3c(/C=N/NC(=O)c4ccc(O)c(Cl)c4)cccc32)c1C [Compound I-19, (E)-3-chloro-4-hydroxy-N′-((1-(2,3,5,6-tetramethylbenzyl)-1H-indol-4-yl)methylene)benzohydrazide]

PAC1 receptor internalization ([3]; concentration not given): modest effects
PAC1 receptor-mediated calcium flux [1]: attenuate
PAC1 receptor endosomal/ligand-mediated ERK activation [2]: modest effects
SMILES: O=C(N/N=C/c1cccc2c1ccn2Cc1cccc(C(F)(F)F)c1)c1ccc(O)c(Cl)c1 [Compound I-21, reference compound]

PACAP-stimulated receptor internalization ([3]; 15 min pretreatment with 10-25 μM compound, 25 nM PACAP, 15 min, FIG. 1): blocked
PACAP-stimulated calcium signal blocked ([1]; 2.5 μM compound): approximately 50%
PACAP-stimulated calcium signal/flux ([1]; 25 μM compound): abolished
PACAP-stimulated ERK activation ([2]; 25 μM compound, 25 nM PACAP, FIG. 3): near control levels
IC50 ([2]; normalized to total ERK levels, approximate/apparent, FIG. 4, read-out: IC50 in inhibiting PACAP-stimulated ERK activation): 8 to 10 µM
SMILES: O=C(N/N=C/c1cccc2c1ccn2Cc1cc(F)cc(F)c1)c1ccc(O)c(Cl)c1 [Compound I-1, (E)-3-chloro-N′-((1-(3,5-difluorobenzyl)-1H-indol-4-yl)methylene)-4-hydroxybenzohydrazide]
Open field center field time, compound alone compared to control ([4]; 5-10 μM infusion into the BNST, no PACAP): no apparent effects
PACAP-induced stress/anxiety responses (open field center field time) ([4]; BNST preinjection of compound before PACAP infusion): completely blocked

ERK activation attenuated ([2]; 25 μM compound, FIG. 5): approximately 50%
Antagonism at the PAC1-receptor compared to I-1 ([2]; FIG. 5): weak antagonist
PACAP-stimulated ERK activation, combination ([2]; I-20 together with 10 μM I-1, FIG. 6): basal or near-basal levels
SMILES: COc1ccc2cc(-c3cc(-c4cc(Cl)cc(Cl)c4)nn3C(C)c3ccc(C(=O)NCCC(=O)O)cc3)ccc2c1 (stereo not drawn) [Compound I-20]
